Experimental data published in patent publication US9617262B2, “Antibacterial cyclopental[C]pyrrole substituted 3,4-dihydro-1H-[1,8]naphthyridinones” (Janssen Sciences Ireland UC, priority 2011, dated 2017).

Legend:
[1] = target: S. aureus ATCC 29213 FabI (Staphylococcus aureus (strain MRSA252), UniProt Q6GI75); assay: Staphylococcus aureus FabI enzyme inhibition assay; assay type: biochemical; details: pH 6.5, 30 minutes at room temperature
Method: FabI enzyme inhibition assays were carried out in half-area, 384-well microtitre plates. Compounds were evaluated in 40-μl assay mixtures containing 100 mM NaADA, pH 6.5 (ADA=N-[2-acetamido]-2iminodiacetic acid), 250 μM crotonoyl-CoA, 625 μM NADH and 50 μg/ml S. aureus ATCC 29213 FabI. Inhibitors were typically varied over the range of 50 to 0.39 μM. The reaction mixtures were incubated for 30 minutes at room temperature and the reaction was stopped by adding 200 mM Tris buffer (pH 9.0) to create a pH-shift. The consumption of NADH was monitored by measuring the change in absorbance at […]. By comparing sample readings to those of negative (absence of compound) and positive (absence of enzyme) controls, the percent inhibition of enzymatic activity of the compounds was determined. A best-fit curve is fitted by a minimum of squares method. From this an IC50-value (expressed in μg/ml), resulting in 50% inhibition of enzymatic activity, was obtained.

[2] = system: Staphylococcus aureus ATCC 29213; assay: Antibacterial susceptibility testing: IC90 determination (STA); assay type: cell-based; details: STA ATCC 29213, 90% inhibitory concentration for bacterial growth
Method: (§1) The following bacteria were used: Staphylococcus aureus ATCC 29213, methicillin-resistant Staphylococcus aureus (MRSA) ATCC 700788 and Escherichia coli ATCC 35218. The bacteria used in this study were grown overnight in flasks containing 100 ml Mueller-Hinton broth (Difco cat. nr. 0757-17) in sterile de-ionized water, with shaking, at 37° C. Stocks were store at −70° C. until use.
(§2) Bacteria were incubated on a tryptic soy agar plate containing 5% sheep blood (Becton Dickinson cat. nr. 254053) for 18-24 hours at 35° C. in aerobic conditions (first passage). For the second passage, fresh Mueller-Hinton broth is inoculated with 5-10 colonies and grown overnight at 35° C. until turbidity (reaching log-phase) in aerobic conditions is reached. The bacterial suspension is then adjusted to 0.5 McFarland density and further diluted 1:100 in Mueller Hinton broth medium. This is used as inoculum.
(§3) MIC assays were performed by the broth microdilution method in a 96-well format (flat-bottom microtitre plates) with a final volume of 0.1 ml Mueller Hinton broth containing two-fold serial dilutions of compounds and inoculated with 5×10^5 CFU/ml of bacteria (standard inoculum size according to CLSI guidelines). Inhibitors are typically varied over the range of 63 to 0.49 μM. The final DMSO concentration in the assay was 1.25% (maximum tolerable DMSO concentration=6%). In the assays where the effect of human serum on the activity of the compounds against S. aureus was tested, human serum was added at a final concentration of 10%. The plates were incubated at 35° C. for 16-20 hours. At the end of incubation the bacterial growth was quantified fluorometrically. For this, resazurin was added to all wells and the plates were re-incubated. The incubation time is dependent on the type of bacteria. A change in color from blue to pink indicated the growth of bacteria. The fluorescence was read in computer-controlled fluorometer (Fluoroskan Ascent FL, Labsystems) at an excitation wavelength 540 nm and an emission wavelength of 590 nm. The % growth inhibition achieved by the compounds was calculated according to standard methods. The IC90 (expressed in μg/ml) was defined as the 90% inhibitory concentration for bacterial growth. A panel of reference compounds were simultaneously tested for QC approval.

S. aureus = assay: Antibacterial susceptibility testing: IC90 determination with 10% human serum (STA + 10% HS); assay type: cell-based, Staphylococcus aureus; details: human serum at a final concentration of 10%
Method: as §1, §2, §3
The results are depicted in the table D2 below (STA+10% HS).

Human HelaM cells = assay: Cytotoxicity MTT assay (TOX HELAM); assay type: cell-based; details: 72 hours
Method: Cytotoxicity of the compounds was evaluated using the MTT assay. Human HelaM cells grown in 96-well plates were exposed to serial dilutions of the tested compounds (final volume of 0.2 ml) and incubated for 72 hours at 37° C. and 5% CO2. Inhibitors are typically varied over the range of 25 to 0.8 μM. The final DMSO concentration in the assay is 0.5%. MTT (3-(4,5-Dimethylthiazol-2-yl)-2,5-diphenyltetrazolium bromide, a tetrazole) was added and reduced to purple formazan only in living cells. Solubilization of the formazan crystals was achieved by adding 100 μl 2-propanol. Cell viability was determined by measuring the absorbance of the reduced formazan, giving a purple color, at 540 nm and 690 nm. The absorbance measured at 690 nm was automatically subtracted from the absorbance at 540 nm, to eliminate the effects of non-specific absorption. The percent cytotoxicity achieved by the compounds was calculated according to standard methods. Cytotoxicity is reported as CC50, the concentration that causes a 50% reduction in cell viability.
The results are depicted in the table D2 below (TOX HELAM).

For `O=C1CCc2cc(/C=C/C(=O)N3CC4C=C(c5cccnc5)CC4C3)cnc2N1` (racemic) [compound 26], the “FabI IC50” value [1] was 0.41 µg/mL, the “STA (361.159) IC90” value [2] was 1.11 µg/mL and the “STA + 10% HS (361.169) IC90” value (S. aureus) was 1.11 µg/mL. For the same compound, the “TOX HELAM (222.125) CC50” value (Human HelaM cells) was greater than 3.8646 µg/mL.

For `O=C1CCc2cc(/C=C/C(=O)N3C[C@H]4CC(c5ccccc5)=C[C@H]4C3)cnc2N1` (single isomer, unassigned) [compound 13], the “FabI IC50” value [1] was 0.39 µg/mL, the “STA (361.159) IC90” value [2] was 0.31 µg/mL and the “STA + 10% HS (361.169) IC90” value (S. aureus) was 0.43 µg/mL. For the same compound, the “TOX HELAM (222.125) CC50” value (Human HelaM cells) was greater than 9.683 µg/mL.

For `O=C1CCc2cc(/C=C/C(=O)N3C[C@H]4CC(c5ccncc5)=C[C@H]4C3)cnc2N1` (single isomer, unassigned) [compound 40], the “FabI IC50” value [1] was 0.39 µg/mL.

In the case of `O=C1CCc2cc(/C=C/C(=O)N3CC4C=C(c5cccs5)CC4C3)cnc2N1` (stereo not drawn) [compound 3], the “FabI IC50” value [1] is reported as 0.29 µg/mL, the “STA (361.159) IC90” value [2] is reported as 0.03 µg/mL and the “STA + 10% HS (361.169) IC90” value (S. aureus) is reported as 0.06 µg/mL. For the same compound, the “TOX HELAM (222.125) CC50” value (Human HelaM cells) was greater than 3.256 µg/mL.

In the case of `O=C1CCc2cc(/C=C/C(=O)N3C[C@@H]4CN(c5cccs5)C[C@@H]4C3)cnc2N1` [compound 4], the “FabI IC50” value [1] is reported as 0.70 µg/mL.

In the case of `O=C1CCc2cc(/C=C/C(=O)N3C[C@H]4CN(Cc5cccs5)C[C@H]4C3)cnc2N1` [compound 6], the “FabI IC50” value [1] is reported as 3.73 µg/mL.

For `COc1ccccc1N1C[C@H]2CN(C(=O)/C=C/c3cnc4c(c3)CCC(=O)N4)C[C@H]2C1` [compound 8], the “FabI IC50” value [1] was 0.50 µg/mL, the “STA (361.159) IC90” value [2] was 1.15 µg/mL and the “STA + 10% HS (361.169) IC90” value (S. aureus) was 1.52 µg/mL. For the same compound, the “TOX HELAM (222.125) CC50” value (Human HelaM cells) was greater than 10.5122 µg/mL.

For `O=C1CCc2cc(/C=C/C(=O)N3CC4C=C(c5ccccc5Cl)CC4C3)cnc2N1` (stereo not drawn) [compound 9], the “FabI IC50” value [1] was 0.75 µg/mL, the “STA (361.159) IC90” value [2] was 0.33 µg/mL and the “STA + 10% HS (361.169) IC90” value (S. aureus) was 0.69 µg/mL. The “TOX HELAM (222.125) CC50” value (Human HelaM cells) was 4.77 µg/mL.

With `Cc1ccccc1C1=CC2CN(C(=O)/C=C/c3cnc4c(c3)CCC(=O)N4)CC2C1` (stereo not drawn) [compound 11] the “FabI IC50” value [1] was 0.48 µg/mL, the “STA (361.159) IC90” value [2] was 0.37 µg/mL and the “STA + 10% HS (361.169) IC90” value (S. aureus) was 1.76 µg/mL. For the same compound, the “TOX HELAM (222.125) CC50” value (Human HelaM cells) was 6.19 µg/mL.

With `Cn1nccc1C1=CC2CN(C(=O)/C=C/c3cnc4c(c3)CCC(=O)N4)CC2C1` (stereo not drawn) [compound 15] the “FabI IC50” value [1] was 0.48 µg/mL, the “STA (361.159) IC90” value [2] was 0.74 µg/mL and the “STA + 10% HS (361.169) IC90” value (S. aureus) was 0.72 µg/mL. The “TOX HELAM (222.125) CC50” value (Human HelaM cells) was greater than 9.783 µg/mL.

For `Cc1ccccc1N1C[C@H]2CN(C(=O)/C=C/c3cnc4c(c3)CCC(=O)N4)C[C@H]2C1` [compound 17], the “FabI IC50” value [1] was 0.38 µg/mL, the “STA (361.159) IC90” value [2] was 0.37 µg/mL and the “STA + 10% HS (361.169) IC90” value (S. aureus) was 0.38 µg/mL. For the same compound, the “TOX HELAM (222.125) CC50” value (Human HelaM cells) was greater than 10.1103 µg/mL.

`O=C1CCc2cc(/C=C/C(=O)N3C[C@@H]4CN(c5ccccc5Cl)C[C@@H]4C3)cnc2N1` [compound 18] was tested, and the “FabI IC50” value [1] was 0.44 µg/mL, the “STA (361.159) IC90” value [2] was 0.21 µg/mL and the “STA + 10% HS (361.169) IC90” value (S. aureus) was 0.37 µg/mL. For the same compound, the “TOX HELAM (222.125) CC50” value (Human HelaM cells) was greater than 10.6233 µg/mL.

In the case of `O=C1CCc2cc(/C=C/C(=O)N3CC4C=C(c5ccco5)CC4C3)cnc2N1` (stereo not drawn) [compound 19], the “FabI IC50” value [1] is reported as roughly 0.62 µg/mL, the “STA (361.159) IC90” value [2] is reported as 0.18 µg/mL and the “STA + 10% HS (361.169) IC90” value (S. aureus) is reported as 0.12 µg/mL. The “TOX HELAM (222.125) CC50” value (Human HelaM cells) was greater than 9.43 µg/mL.

`O=C1CCc2cc(/C=C/C(=O)N3C[C@@H]4CN(c5cccnc5)C[C@@H]4C3)cnc2N1` [compound 20] was tested, and the “FabI IC50” value [1] was 1.07 µg/mL.

In the case of `Cn1cc(C2=CC3CN(C(=O)/C=C/c4cnc5c(c4)CCC(=O)N5)CC3C2)cn1` (stereo not drawn) [compound 27], the “FabI IC50” value [1] is reported as 0.6 µg/mL.

With `O=C1CCc2cc(/C=C/C(=O)N3CC4CC(n5cccn5)CC4C3)cnc2N1` (stereo not drawn) [compound 29] the “FabI IC50” value [1] was 1.04 µg/mL.

For `C#CN1C[C@@H]2CN(C(=O)/C=C/c3cnc4c(c3)CCC(=O)N4)C[C@@H]2C1` [compound 30], the “FabI IC50” value [1] was 2.66 µg/mL.

With `COC1CC2CN(C(=O)/C=C/c3cnc4c(c3)CCC(=O)N4)CC2C1` (stereo not drawn) [compound 31] the “FabI IC50” value [1] was 1.42 µg/mL.

With `O=C1CCc2cc(/C=C/C(=O)N3CC4C=C(c5nccs5)CC4C3)cnc2N1` (stereo not drawn) [compound 32] the “FabI IC50” value [1] was 0.46 µg/mL.

`O=C1CCc2cc(/C=C/C(=O)N3C[C@@H]4CN(S(=O)(=O)c5ccccc5)C[C@@H]4C3)cnc2N1` [compound 33] was tested, and the “FabI IC50” value [1] was 3.06 µg/mL.

With `O=C1CCc2cc(/C=C/C(=O)N3CC4CC(F)(F)CC4C3)cnc2N1` (stereo not drawn) [compound 34] the “FabI IC50” value [1] was 1.67 µg/mL.

In the case of `O=C1CCc2cc(/C=C/C(=O)N3C[C@@H]4CN(c5ccc(Cl)cc5)C[C@@H]4C3)cnc2N1` [compound 35], the “FabI IC50” value [1] is reported as 1.25 µg/mL.

With `O=C1CCc2cc(/C=C/C(=O)N3C[C@@H]4CN(c5cccc(Cl)c5)C[C@@H]4C3)cnc2N1` [compound 36] the “FabI IC50” value [1] was 0.93 µg/mL.

In the case of `O=C1CCc2cc(/C=C/C(=O)N3CC4CC(n5cncn5)CC4C3)cnc2N1` (stereo not drawn) [compound 37], the “FabI IC50” value [1] is reported as 3.37 µg/mL.

For `O=C1CCc2cc(/C=C/C(=O)N3CC4CC(n5ccnn5)CC4C3)cnc2N1` (stereo not drawn) [compound 38], the “FabI IC50” value [1] was 2.08 µg/mL.

In the case of `O=C1CCc2cc(/C=C/C(=O)N3CC4CC(n5nccn5)CC4C3)cnc2N1` (stereo not drawn) [compound 39], the “FabI IC50” value [1] is reported as 0.56 µg/mL.

In the case of `O=C1CCc2cc(/C=C/C(=O)N3C[C@@H]4CC(c5ccsc5)=C[C@@H]4C3)cnc2N1` [compound 45], the “FabI IC50” value [1] is reported as 0.45 µg/mL.

With `CC1=CC2CN(C(=O)/C=C/c3cnc4c(c3)CCC(=O)N4)CC2C1` (stereo not drawn) [compound 52] the “FabI IC50” value [1] was 0.50 µg/mL.

For `O=C1CCc2cc(/C=C/C(=O)N3C[C@H]4CC(Oc5ccccc5)C[C@H]4C3)cnc2N1` (stereo partly drawn) [compound 54], the “FabI IC50” value [1] was 1.84 µg/mL.

In the case of `Cc1ccc(C2=CC3CN(C(=O)/C=C/c4cnc5c(c4)CCC(=O)N5)CC3C2)o1` (stereo not drawn) [compound 57], the “FabI IC50” value [1] is reported as 0.62 µg/mL.

`Cc1cscc1C1=CC2CN(C(=O)/C=C/c3cnc4c(c3)CCC(=O)N4)CC2C1` (stereo not drawn) [compound 60] was tested, and the “FabI IC50” value [1] was 0.59 µg/mL.

With `CC(=O)c1ccc(C2=CC3CN(C(=O)/C=C/c4cnc5c(c4)CCC(=O)N5)CC3C2)s1` (stereo not drawn) [compound 62] the “FabI IC50” value [1] was 0.44 µg/mL.

In the case of `COc1ccsc1C1=CC2CN(C(=O)/C=C/c3cnc4c(c3)CCC(=O)N4)CC2C1` (stereo not drawn) [compound 72], the “FabI IC50” value [1] is reported as 0.43 µg/mL.
